The results in this text go back to US20250320193A1, “OXOISOINDOLINYL SUBSTITUTED PIPERIDINEDIONE DERIVATIVE AND USE THEREOF” (GLUETACS THERAPEUTICS (SHANGHAI) CO., LTD., priority 2022, published 2025).

Common to all, as to type: cell-based
Assay [1] concerns the target IKZF3 (Homo sapiens (Human), UniProt Q96SW2+Q9UKT9). The assay is described as follows: Western blot, substrate protein expression in hPBMC: IKZF3. Particulars: for substrate protein remaining % IKZF3: hPBMC, compound 500 nM, 24 hours, Western blot. On the procedure:
(§1) The effect of the compounds of the present disclosure on the expression of target proteins in cells was detected using conventional Western blot analysis.
(§2) Human peripheral blood mononuclear cells (hPBMCs) at a density of 1×10^6 cells/mL were thawed according to the PBMC Recovery Protocol (Milecell Biotechnologies Inc, Shanghai). […] After 24 hours of compounds treatment, cells were harvested and lysed in RIPA protein lysate containing phosphatase inhibitors on ice for 30-60 min, followed by centrifugation. The supernatant was aspirated as the extracted total cell protein. The protein concentration of the supernatant was determined using the conventional BCA (Bicinchoninic Acid) assay. The supernatant was then mixed with 4× SDS sample loading buffer, denatured at 95° C. for 5 minutes, and then subjected to SDS-PAGE electrophoresis on a polyacrylamide gel. Proteins were then transferred to a nitrocellulose (NC) membrane, blocked at room temperature for 1-2 h, and processed for antibody incubation and detection according to the manufacturer's instructions (Cell Signaling Technology).
(§3) Half-Maximal Degradation Concentration value (the drug concentration required for degrading proteins by 50%, abbreviated as DC50) reads method: comparing the grayscale values of Western blot bands from drug-treated samples (protein degrader compounds) with those from blank (DMSO-treated) controls, and identifying the drug concentration range at which the grayscale value is half that of the DMSO-treated control bands.
(§4) DC50 values can be calculated using ImageJ software to measure grayscale values of Western blot bands from drug-treated samples. The relationship curve between drug concentration and grayscale values is fitted to estimate the drug concentration corresponding to half the grayscale value.
(§5) Target protein remaining (%) refers to the percentage of target protein remaining in hPBMC cells after treatment with protein degrader compounds.
(§6) Calculation method for protein remaining (%): Use ImageJ software to measure grayscale values of Western blot bands from drug (protein degrader)-treated samples. The grayscale value of drug-treated bands is divided by that of internal control protein bands, and the resulting quotient is normalized to obtain the relative percentage of remaining target protein after protein degrader treatment.
(§7) Target protein degradation rate (%)=100%-target protein remaining (%).

For assay [2], the target named is GSPT1 (Homo sapiens (Human), UniProt P15170+Q96SW2). The assay is described as follows: Western blot, substrate protein expression in hPBMC: GSPT1. The settings on record: hPBMC, compound 500 nM, 24 hours, Western blot. On the procedure:
as §1, §2, §3, §4, §5, §6, §7
A general note: In western blotting, separated proteins are transferred to a membrane and probed.

Assay [3] deals with IKZF1 (Homo sapiens (Human), UniProt Q13422+Q96SW2). Nature of the assay: Western blot, substrate protein expression in hPBMC: IKZF1. Particulars: for substrate protein remaining % IKZF1: hPBMC, compound 500 nM, 24 hours, Western blot. On the procedure:
as §1, §2, §3, §4, §5, §6, §7

Chain of IKZF1 (Q13422 whole entry): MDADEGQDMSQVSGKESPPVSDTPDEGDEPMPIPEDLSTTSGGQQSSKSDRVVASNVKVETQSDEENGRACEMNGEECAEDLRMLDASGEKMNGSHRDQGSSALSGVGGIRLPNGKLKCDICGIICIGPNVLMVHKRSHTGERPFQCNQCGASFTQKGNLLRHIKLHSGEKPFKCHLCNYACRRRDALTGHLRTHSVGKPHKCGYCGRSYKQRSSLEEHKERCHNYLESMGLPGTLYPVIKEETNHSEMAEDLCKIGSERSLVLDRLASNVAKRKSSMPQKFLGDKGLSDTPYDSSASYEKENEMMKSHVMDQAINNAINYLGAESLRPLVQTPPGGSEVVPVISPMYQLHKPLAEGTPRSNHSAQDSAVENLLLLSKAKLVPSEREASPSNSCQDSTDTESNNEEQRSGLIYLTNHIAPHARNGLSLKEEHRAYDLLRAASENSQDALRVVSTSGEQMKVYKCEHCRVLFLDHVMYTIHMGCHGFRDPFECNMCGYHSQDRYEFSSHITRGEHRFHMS
Chain of IKZF1 (Q96SW2 whole entry): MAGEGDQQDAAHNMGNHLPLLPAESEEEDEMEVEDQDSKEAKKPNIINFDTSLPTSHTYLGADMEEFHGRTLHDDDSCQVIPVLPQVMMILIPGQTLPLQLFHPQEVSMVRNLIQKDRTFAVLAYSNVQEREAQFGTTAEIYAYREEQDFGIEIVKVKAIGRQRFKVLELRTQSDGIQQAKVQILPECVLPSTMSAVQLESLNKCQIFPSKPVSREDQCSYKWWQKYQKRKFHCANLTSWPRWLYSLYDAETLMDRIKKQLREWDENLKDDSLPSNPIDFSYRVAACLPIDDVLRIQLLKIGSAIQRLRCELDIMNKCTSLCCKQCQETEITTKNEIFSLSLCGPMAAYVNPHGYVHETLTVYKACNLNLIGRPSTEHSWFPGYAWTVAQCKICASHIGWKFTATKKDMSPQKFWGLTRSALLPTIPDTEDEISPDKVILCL
Chain of IKZF1 (Q16531 whole entry partner): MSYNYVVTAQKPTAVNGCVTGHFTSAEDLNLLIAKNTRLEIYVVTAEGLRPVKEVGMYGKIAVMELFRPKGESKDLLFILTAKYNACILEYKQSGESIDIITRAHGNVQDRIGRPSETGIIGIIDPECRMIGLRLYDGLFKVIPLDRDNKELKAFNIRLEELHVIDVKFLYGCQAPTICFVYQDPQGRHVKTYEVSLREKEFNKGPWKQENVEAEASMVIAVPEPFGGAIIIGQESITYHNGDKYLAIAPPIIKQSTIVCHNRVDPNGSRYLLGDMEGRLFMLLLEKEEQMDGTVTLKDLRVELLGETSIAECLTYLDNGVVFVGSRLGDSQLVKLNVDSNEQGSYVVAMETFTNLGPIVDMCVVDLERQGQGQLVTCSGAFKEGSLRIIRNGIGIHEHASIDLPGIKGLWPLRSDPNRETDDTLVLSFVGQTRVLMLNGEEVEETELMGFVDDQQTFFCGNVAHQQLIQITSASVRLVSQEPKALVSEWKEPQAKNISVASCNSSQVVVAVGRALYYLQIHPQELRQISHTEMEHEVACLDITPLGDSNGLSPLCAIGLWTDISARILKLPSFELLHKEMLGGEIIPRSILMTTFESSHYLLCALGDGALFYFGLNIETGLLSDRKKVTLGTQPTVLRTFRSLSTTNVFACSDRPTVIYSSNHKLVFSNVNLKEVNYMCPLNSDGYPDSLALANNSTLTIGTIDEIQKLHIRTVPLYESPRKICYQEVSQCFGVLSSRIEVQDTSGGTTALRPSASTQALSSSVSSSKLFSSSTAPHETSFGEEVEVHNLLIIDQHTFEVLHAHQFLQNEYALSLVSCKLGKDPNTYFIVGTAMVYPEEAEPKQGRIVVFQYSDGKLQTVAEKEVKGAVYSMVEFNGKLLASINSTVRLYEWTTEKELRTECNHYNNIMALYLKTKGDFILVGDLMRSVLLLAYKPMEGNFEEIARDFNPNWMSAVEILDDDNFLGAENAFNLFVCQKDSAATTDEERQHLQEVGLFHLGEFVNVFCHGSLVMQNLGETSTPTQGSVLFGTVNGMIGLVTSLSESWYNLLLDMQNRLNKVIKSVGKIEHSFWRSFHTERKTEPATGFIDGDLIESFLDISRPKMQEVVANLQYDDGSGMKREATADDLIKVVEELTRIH
Chain of IKZF3 (Q9UKT9 whole entry): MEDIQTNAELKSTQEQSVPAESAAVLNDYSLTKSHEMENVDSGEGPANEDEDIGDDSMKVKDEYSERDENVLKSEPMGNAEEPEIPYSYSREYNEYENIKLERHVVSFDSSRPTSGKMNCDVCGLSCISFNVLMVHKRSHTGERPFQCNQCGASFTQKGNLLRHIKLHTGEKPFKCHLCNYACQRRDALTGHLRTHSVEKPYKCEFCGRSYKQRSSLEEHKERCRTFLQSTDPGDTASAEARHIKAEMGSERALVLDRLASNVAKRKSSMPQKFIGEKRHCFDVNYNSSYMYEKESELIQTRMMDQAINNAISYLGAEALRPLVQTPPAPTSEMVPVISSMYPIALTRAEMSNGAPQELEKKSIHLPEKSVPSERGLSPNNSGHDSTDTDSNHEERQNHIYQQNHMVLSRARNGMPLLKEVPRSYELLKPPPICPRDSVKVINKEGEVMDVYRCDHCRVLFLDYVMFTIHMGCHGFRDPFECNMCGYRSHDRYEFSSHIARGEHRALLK
Chain of IKZF3 (Q96SW2 whole entry): as the sequence (Q96SW2 whole entry) above
Chain of IKZF3 (Q16531 whole entry partner): as the sequence (Q16531 whole entry partner) above
Chain of GSPT1 (P15170 whole entry): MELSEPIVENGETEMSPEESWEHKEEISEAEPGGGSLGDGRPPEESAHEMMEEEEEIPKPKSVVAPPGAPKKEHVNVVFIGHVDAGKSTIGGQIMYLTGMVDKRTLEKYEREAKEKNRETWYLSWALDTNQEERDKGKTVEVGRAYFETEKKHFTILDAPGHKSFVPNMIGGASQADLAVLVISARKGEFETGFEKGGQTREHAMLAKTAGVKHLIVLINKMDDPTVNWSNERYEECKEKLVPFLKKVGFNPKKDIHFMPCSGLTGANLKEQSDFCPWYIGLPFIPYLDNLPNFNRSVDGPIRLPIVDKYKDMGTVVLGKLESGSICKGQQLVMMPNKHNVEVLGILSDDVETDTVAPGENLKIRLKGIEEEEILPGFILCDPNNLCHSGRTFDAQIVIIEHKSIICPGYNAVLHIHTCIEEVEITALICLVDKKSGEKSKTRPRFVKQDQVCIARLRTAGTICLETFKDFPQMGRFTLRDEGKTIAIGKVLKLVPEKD
Chain of GSPT1 (Q96SW2 whole entry): as the sequence (Q96SW2 whole entry) above
Chain of GSPT1 (Q16531 whole entry partner): as the sequence (Q16531 whole entry partner) above

Turning to `O=C1CCC(N2Cc3c(CN4CCN(C(c5ccc(Cl)cc5)c5ccc(Cl)cc5)CC4)cccc3C2=O)C(=O)N1` (centres unmarked) [GT-03648, 3-(4-((4-(bis(4-chlorophenyl)methyl)piperazin-1-yl)methyl)-1-oxoisoindolin-2-yl)piperidine-2,6-dione], the “substrate protein remaining % IKZF3” value in assay [1] is “B (B represents substrate protein remaining % > 50%)”. In addition, the “substrate protein remaining % GSPT1” value in assay [2] was “A (A represents 0% ≤ substrate protein remaining % ≤ 50%)”. Further, in assay [3], the “substrate protein remaining % IKZF1” value is given as “B (B represents substrate protein remaining % > 50%)”.

As to `O=C1CCC(N2Cc3cc(CN4CCN(C(c5cccnc5)c5cccnc5)CC4)c(F)cc3C2=O)C(=O)N1` (centres unmarked) [GT-04386, 3-(5-((4-(di(pyridin-3-yl)methyl)piperazin-1-yl)methyl)-6-fluoro-1-oxoisoindolin-2-yl)piperidine-2,6-dione], the “substrate protein remaining % IKZF3” value in assay [1] was “B (B represents substrate protein remaining % > 50%)”. Moreover, the “substrate protein remaining % GSPT1” value in assay [2] is “A (A represents 0% ≤ substrate protein remaining % ≤ 50%)”. The “substrate protein remaining % IKZF1” value in assay [3] is “B (B represents substrate protein remaining % > 50%)”.

Consider `O=C1CCC(N2C(=O)c3ccc(CN4CCN(C(c5ccccc5)c5ccccc5)CC4)cc3C2=O)C(=O)N1` (centres unmarked) [GT-05690, 5-((4-benzhydrylpiperazin-1-yl)methyl)-2-(2,6-dioxopiperidin-3-yl) isoindoline-1,3-dione], for which, in assay [1], the “substrate protein remaining % IKZF3” value is “A (A represents 0% ≤ substrate protein remaining % ≤ 50%)”. Further, the “concentration at which IKZF3 protein was significantly degraded (Western blot, FIG. 1)” value in assay [1] (hPBMCs) is recorded as less than 500 nM. For the same compound, the “substrate protein remaining % GSPT1” value in assay [2] is “A (A represents 0% ≤ substrate protein remaining % ≤ 50%)”. Besides, the “substrate protein remaining % IKZF1” value in assay [3] is “A (A represents 0% ≤ substrate protein remaining % ≤ 50%)”. The “concentration at which IKZF1 protein was significantly degraded (Western blot, FIG. 1)” value in assay [3] (hPBMCs) is less than 500 nM.

As to `O=C1CCC(N2C(=O)c3ccc(CN4CCN(C(c5ccccc5)c5ccccn5)CC4)cc3C2=O)C(=O)N1` (centres unmarked) [GT-05723, 2-(2,6-dioxopiperidin-3-yl)-5-((4-(phenyl(pyridin-2-yl)methyl)piperazin-1-yl)methyl) isoindoline-1,3-dione], the “substrate protein remaining % IKZF3” value in assay [1] is recorded as “B (B represents substrate protein remaining % > 50%)”. The “substrate protein remaining % GSPT1” value in assay [2] is on record as “A (A represents 0% ≤ substrate protein remaining % ≤ 50%)”. For the same compound, the “substrate protein remaining % IKZF1” value in assay [3] was “B (B represents substrate protein remaining % > 50%)”.

With `O=C1CCC(N2C(=O)c3ccc(CN4CCN(C(c5ccc(F)cc5)c5ccc(F)cc5)CC4)cc3C2=O)C(=O)N1` (centres unmarked) [GT-05726, 5-((4-(bis(4-fluorophenyl)methyl)piperazin-1-yl)methyl)-2-(2,6-dioxopiperidin-3-yl) isoindoline-1,3-dione], in assay [1], the “substrate protein remaining % IKZF3” value is on record as “A (A represents 0% ≤ substrate protein remaining % ≤ 50%)”. Besides, in assay [2], the “substrate protein remaining % GSPT1” value is “A (A represents 0% ≤ substrate protein remaining % ≤ 50%)”. Also, the “substrate protein remaining % IKZF1” value in assay [3] was “B (B represents substrate protein remaining % > 50%)”.

As to `O=C1CCC(N2C(=O)c3ccc(CN4CCN(C(c5ccc(Cl)cc5)c5ccc(Cl)cc5)CC4)cc3C2=O)C(=O)N1` (centres unmarked) [GT-05727, 5-((4-(bis(4-chlorophenyl)methyl)piperazin-1-yl)methyl)-2-(2,6-dioxopiperidin-3-yl) isoindoline-1,3-dione], the “substrate protein remaining % IKZF3” value in assay [1] is “A (A represents 0% ≤ substrate protein remaining % ≤ 50%)”. The “substrate protein remaining % GSPT1” value in assay [2] is listed as “A (A represents 0% ≤ substrate protein remaining % ≤ 50%)”. For the same compound, the “substrate protein remaining % IKZF1” value in assay [3] is “B (B represents substrate protein remaining % > 50%)”.

Take `O=C1CCC(N2C(=O)c3ccc(CN4CCCN(C(c5ccccc5)c5ccccc5)CC4)cc3C2=O)C(=O)N1` (centres unmarked) [GT-05739, 5-((4-benzhydryl-1,4-diazepan-1-yl)methyl)-2-(2,6-dioxopiperidin-3-yl) isoindoline-1,3-dione]: the “substrate protein remaining % IKZF3” value in assay [1] is “B (B represents substrate protein remaining % > 50%)”. In addition, the “substrate protein remaining % GSPT1” value in assay [2] is “A (A represents 0% ≤ substrate protein remaining % ≤ 50%)”. The “substrate protein remaining % IKZF1” value in assay [3] is reported as “B (B represents substrate protein remaining % > 50%)”.
